Here are results for 19 molecules from patent publication US10857227B2, “Immunostimulatory compositions” (ASSISTANCE PUBLIQUE-HOPITAUX DE PARIS, priority 2015, dated 2020).

Where no end group is shown, it is not given here. [ ]: non-standard residue; d: D form. Dopa = N[C@@H](Cc1ccc(O)c(O)c1)C(=O)O A value given as a limit tells only on which side of the number the result lay.

The test system of data set [1] is total splenocytes restimulated with MHC class-1 epitope KVPRNQDWL (human gp100). In kind it is in vivo, C57-B16 mice. The settings on record: for CD8 immune response with various melanin precursors: 10 μg hgp100 epitope co-incubated with melanin precursor, pH 8.5 Tris, + 10 μg CpG-28, subcutaneous; for number of IFNy-secreting lymphocytes mean +/− SD: gp100 peptide 10 μg/mouse + L-Dopa 40 μg/mouse incubated 18 hours aerated, mixed with the TLR9 agonist. How it is done:
(§1) […] After 2 immunizations, the CD8+immune response was evaluated on day 14 using a gamma interferon (IFNg)-secretion Elispot assay, after restimulation of total splenocytes with the relevant MHC class-1 epitope ([…] (SEQ ID NO: 2) for Ovalbumine or […] (SEQ ID NO: 3) for human gp100)

The test system of data set [2] is total splenocytes restimulated with MHC class-1 epitope SIINFEKL (Ovalbumine). The data set is described as follows: IFNg-secretion Elispot of splenocytes after immunization, restimulation with Ovalbumine epitope. The format is in vivo, C57-B16 mice. The settings on record: for CD8 immune response (IFNg spots): Ovalbumine epitope alone or mixed with 10 μg DOPA, with or without 18 hours oxygen incubation, + CpG-28; for CD8 immune response (IFNg spots) / CD8 / CTL immune response: day 14; for CD8 / CTL immune response: 1 μg peptide + 10 μg CpG-28, day 0 & day 7; for immune response, Dopamine as melanin precursor: peptides with Dopamine; for immune response after 2 immunizations, Dopa as melanin precursor: 3.6 μg peptide co-incubated 18 hours with 100 μg DOPA pH 8.5. Here is the method:
as §1

Data set [3] can be described thus: Solubility and stability of oxidized Dopa or Dopamine solutions. In kind it is physicochemical. The settings on record: for precipitation under centrifugation: 2 mg/ml oxidized solution, Dopa: oxygen at pH8.5, 16 000 g for 30 minutes; for aggregates under light microscopy: 2 mg/ml solution oxidized 20 hours, with or without pOVA 0.1 mg/ml. How it is done:
Dopa (2 mg/ml) or Dopamine (2 mg/ml) solutions were incubated with or without the pOVA (0.1 mg/ml) at pH 7.4 or 8.5, and with different oxidizing agents (O2, ammonium persulfate) for 20 hours. All solutions darkened within a few hours. […] Under centrifugation, the dopamine solutions precipitated, and some dark material remained adherent to the tubes.

For data set [4], the system named is IFNγ-secreting lymphocytes. The data set is described as follows: Elispot after immunization with formulations oxidized by different agents (Example 2, Table 1). Conditions: H2O2 or ammonium persulfate as oxidant. In kind it is in vivo, mice. Here is the method:
C57-B16, 5-week old, mice were immunized twice (on day 1 and day 7) with the different formulations combined to a Toll-like Receptor 9 (TLR-9) agonist (10 μg of the CpG-28 oligonucleotide, […] (SEQ ID NO: 1)). After 2 immunizations, the CD8+immune response was evaluated on day 14 using a gamma interferon (IFNg)-secretion Elispot assay, after restimulation of total splenocytes with the relevant MHC class-1 epitope ([…] (SEQ ID NO: 2) for Ovalbumine or […] (SEQ ID NO: 3) for human gp100)
Other oxidizing agents such as hydrogen peroxide (H2O2) or ammonium persulfate (APS) can be used (FIG. 3).

The nature of data set [5]: 10 kD filtration and SDS-PAGE of melanin-EphA2 complex. In kind it is physicochemical. Here is the method:
FIG. 11: SDS-PAGE (16% polyacrylamide gel) of various preparations: lane MW: molecular weight marker; lane “Ctrl EphA2”: control peptide EphA2 alone (SEQ ID NO: 9); lane “Filtrate”: filtrate of complex melanin-EphA2 after filtration on a 10 kD filter; lane “Retentate”: retentate of complex melanin-EphA2 after filtration on a 10 kD filter, resuspension, dissolution and heating in loading buffer containing SDS. (Melanin-EphA2 was obtained by co-incubating EphA2 peptide with L-Dopa (weight ration 1:10) in arerated conditions)
A solution of L-Dopa was mixed with an EPHA2 peptide ([…], SEQ ID NO: 9) at a weight ratio L-Dopa:epitope of 1:4. The mixture was then oxidized at pH 8.5 in aerated conditions.

Data set [6] in a line: Thin-layer chromatography of peptide and oxidized Dopa (complex formation). The format is physicochemical. Conditions: 72-hour incubation pH 8.5; hgp100 1 mg/ml, Dopa 10 mg/ml. How it is done:
FIG. 8: Thin-layer chromatography (TLC) after a 72-hour incubation at pH 8.5 (Tris buffer). Left: hgp100 (SEQ ID NO: 3). only; middle: hgp100 (1 mg/ml) and Dopa (10 mg/ml), co-incubated with O2; right: hgp100 (1 mg/ml) added after Dopa (10 mg/ml) had been incubated with O2. […] (TLC was performed on aluminium foils, coated with a thin layer of silica gel as the stationary phase. After the samples have been loaded, a mixture of 1-Butanol/acetic acid/H2O (2/1/1) was used as the mobile phase. The TLC plates were then sprayed with ninhydrin reagent)
FIG. 9: Thin-layer chromatography (TLC) after a 72-hour incubation at pH 8.5 (Tris buffer). Left: hgp100 (, SEQ ID NO: 3) only; other lanes: hgp100 (1 mg/ml) incubated with various doses of Dopa (Dopa/hgp100 weight ratios: from 1/5 to 10/1). […] (TLC: similar conditions as FIG. 8).
In vitro experiments with Thin-layer chromatography (TLC) support the hypothesis that the incubation of the peptide while the catechol is being oxidized modifies the characteristic of the final formulation and that a complex is formed between the two entities (FIG. 8).

Data set [7] has as its system viral epitope gPr73 (SFAVATTAL). The data set is described as follows: CD8 immune response to viral epitope gPr73 variants co-incubated with L-Dopa. The format is in vivo. Conditions: Balb/c mice; peptide co-incubated with L-Dopa, mixed to CpG-28. How it is done:
Adding arginines (R) or lysines (K) to the NH2-terminal end of the peptides enhanced the immune response when compared to unmodified Trp2 (animals were immunized once with formulations consisting of the peptide (10 μg/mouse) co-incubated with L-Dopa (100 μg/mouse), then mixed to CpG-28 (10 μg/mouse). The CD8 immune responses were assessed on day 8).
Similar data were obtained with a viral epitope in Balb/c mice (gPr73: SFAVATTAL, SEQ ID NO: 8). […] In both cases, if a glutamate (E) was added next to the lysine, the efficacy was reduced (Table 2).

The test system of data set [8] is anti-ovalbumine antibodies. Nature of the data set: Humoral response: anti-ovalbumine antibody titers. In kind it is in vivo, C57/Bml6 mice. The settings on record: day 14. Here is the method:
Ovalbumin protein (1 μg) was mixed to Dopa (1 μg) at pH 7.4, incubated for 4 hours with APS (0.3 μg), and injected subcutaneously with 10 μg in C57/Bml6 mice on day 0 and day 7.

Setting [9] is: 1 μg mixed to Dopa 1 μg pH 7.4, 4 hours APS 0.3 μg, subcutaneous day 0 and day 7.

Take `NC(Cc1cc(O)c(O)cc1O)C(=O)O` (stereo not drawn) [6-hydroxydopa, 6-Hydroxy-DOPA]: the “CD8 immune response with various melanin precursors” value in data set [1] (18 hours oxygen) was “significant CD8 immune response”.

Consider `CC(C)(C)OC(=O)N[C@@H](Cc1ccc(O)c(O)c1)C(=O)O` [Boc-Dopa, N-(tert-Butyloxycarbonyl)-L-dopa], for which, in data set [1] (18 hours oxygen), the “CD8 immune response with various melanin precursors” value was “reduced magnitude”.

As for `N[C@H](Cc1ccc(O)c(O)c1)C(=O)O` [D-Dopa, D-3,4-dihydroxyphenylalanine], in data set [1] (18 hours oxygen), the “CD8 immune response with various melanin precursors” value is given as “significant CD8 immune response”.

Take `NCCc1ccc(O)c(O)c1` [Dopamine]: the CTL immune response result in data set [2] (long OVA peptide combined to Dopamine, incubated 4 hours with APS, + 10 μg CpG-28) was “triggered an immune response”. Besides, the “CD8 immune response with various melanin precursors” value in data set [1] (18 hours oxygen) is reported as “reduced magnitude”. For the same molecule, in data set [3], the precipitation under centrifugation entry is on record as “precipitated” and the “aggregates under light microscopy” value is listed as “large aggregates were seen under light microscopy”.

Regarding `N[C@@H](Cc1ccc(O)c(O)c1)C(=O)O` [L-Dopa, L-3,4-dihydroxyphenylalanine], the “CD8 immune response (IFNg spots)” value in data set [2] is “able to induce IFNg spots”. Further, in data set [1] (10 μg hgp100 epitope co-incubated with 100 μg DOPA pH 8.5, 18 hours oxygen, + CpG-28), the CD8 immune response entry was “significant CD8 immune response”. In data set [1] (18 hours oxygen), the “CD8 immune response with various melanin precursors” value is “significant CD8 immune response”. The “optimal molar ratio of oxidant/Dopa for vaccine efficacy” value in data set [4] is given as “around 1/4”. Further, in data set [3], the precipitation under centrifugation entry is on record as “did not precipitate” and the “aggregates under light microscopy” value was “no aggregates can be seen”. In data set [3] (incubated with oxygen at pH8.5), the “filterability of the oxidized solution” value is listed as “can be filtered through a 0.2 μm filter, but not through a 100 kDalton-cut off filter” and the “stability of the oxidized solution” value is on record as “stable for several weeks”.

Regarding `Oc1cccc2cccc(O)c12` [di-hydroxynaphtalene], the “CD8 immune response with various melanin precursors” value in data set [1] (18 hours oxygen) is given as “significant CD8 immune response”.

Take “D-pOVA: Ovalbumine epitope synthesized with a DOPA at the beginning of the peptide ([Dopa]SIINFEKL)”: in data set [2], the “CD8 / CTL immune response” value is listed as “strong CTL immune responses”.

Consider “FSHHNIIRL (also: oxidized with L-Dopa to melanin) [EPHA2 peptide]”, for which the “peptide from retentate heated in loading buffer containing SDS (SDS-page)” value in data set [5] (16% polyacrylamide gel) is recorded as “got dissociated from melanin”. Further, in data set [5] (peptide oxidized with L-Dopa at pH 8.5 in aerated conditions), the “peptide in the filtrate after 10 kD filtration” value was “no peptide could detected in the filtrate”.

With “KVPRNQDWL (human gp100 epitope) [hgp100]”, in data set [1] (C57BL/6 mice, gp100 10 μg/mouse, with or without L-Dopa 40 μg/mouse (18 hours aerated), combined to poly I:C 10 μg/mouse), the “mean number of IFNγ-secreting lymphocytes +/−SD” value is reported as 1+/−1. For the same molecule, in data set [1] (gp100-melanin formulation), the “minimal dose of the epitope required to induce CTLs” value stood at 0.5 µg. Also, in data set [1] (mixed with TLR9 agonist CpG-28, n=8 mice/group), the “IFNγ-secreting lymphocytes when combined with CpG” value is reported as “not”. Also, in data set [1] (mouse, in vivo), the “CTL response, epitope added after L-Dopa had been oxidized instead of before” value is recorded as “a reduction in the CTL response was observed”. Further, in data set [6], the “free peptide on TLC, Dopa and peptide co-incubated with oxidizing agent” value is “not seen any more and not”; the “free peptide on TLC, peptide added after Dopa had been oxidized” value is on record as “Free peptide was seen”.

Regarding SFAVATTAL (Viral epitope of gPr73), the “number of IFNy-secreting lymphocytes mean +/− SD” value in data set [7] is 5 +/− 4.

As to SIINFEKL [pOVA], in data set [2], the “CD8 / CTL immune response” value is “did not trigger any significant CD8 immune response” and the “CD8 immune response (IFNg spots)” value is reported as “did not trigger any significant CD8 immune response”. Besides, the “amount of epitope sufficient to detect an immune response” value in data set [2] (epitope with DOPA model, data not shown) was at most 10 ng.

For “SMLVLLPDEVSGLEQLESIINFEKLTEWTS (long OVA peptide) [SEQ ID NO:4]”, the “immune response, Dopamine as melanin precursor” value (“immune response, Dopamine” below) in data set [2] was “highest immune response”.

“SMLVLLPKKVSGLKQLESIINFEKLTKWTS (positive long OVA peptide) [SEQ ID NO: 6, long OVA peptide modified to be positively charged]”: the “immune response after 2 immunizations, Dopa as melanin precursor” value in data set [2] (+ 10 μg CpG-28) is “strong”. Besides, the “immune response, Dopamine” value in data set [2] was “lowest one”.

For the molecule “SMLVLLPKSVSGLSQLESIINFEKLTSWTS (neutral long OVA peptide) [SEQ ID NO: 5, long OVA peptide modified to be neutral]”, the “immune response after 2 immunizations, Dopa as melanin precursor” value in data set [2] (+ 10 μg CpG-28) is “intermediate”. Besides, the “immune response, Dopamine” value in data set [2] was “intermediate”.

As to “TAAACGTTATAACGTTACGACGTCAT (listed as DNA, chemistry not given here) [CpG-28]”, in data set [1] (L-DOPA 100 μg + hgp100 epitope, 18 hours oxygen), the “immune responses, adjuvant added before versus after oxidation” value is recorded as “similar”. For the same molecule, in data set [1], the “number of IFNy-secreting lymphocytes mean +/− SD” value was 211 +/− 83.

For the molecule TCCATGACGTTCCTGACGTT [compound 1826], the “number of IFNy-secreting lymphocytes mean +/− SD” value in data set [1] is given as 134 +/− 54.

For TGACTGTGAACGTTCGAGATGA [ISS], the “number of IFNy-secreting lymphocytes mean +/− SD” value in data set [1] is 147 +/− 63.

Regarding “pOVA-D: Ovalbumine epitope synthesized with a DOPA at the end of the peptide (SIINFEKL[Dopa])”, in data set [2], the “CD8 / CTL immune response” value is given as “strong CTL immune responses”.

B1: Ovalbumin protein: Ovalbumin protein mixed to Dopa at pH 7.4 and incubated with APS (composition melanin/antigen) (protein)
chain: GSIGAASMEFCFDVFKELKVHHANENIFYCPIAIMSALAMVYLGAKDSTRTQINKVVRFDKLPGFGDSIEAQCGTSVNVHSSLRDILNQITKPNDVYSFSLASRLYAEERYPILPEYLQCVKELYRGGLEPINFQTAADQARELINSWVESQTNGIIRNVLQPSSVDSQTAMVLVNAIVFKGLWEKAFKDEDTQAMPFRVTEQESKPVQMMYQIGLFRVASMASEKMKILELPFASGTMSMLVLLPDEVSGLEQLESIINFEKLTEWTSSNVMEERKIKVYLPRMKMEEKYNLTSVLMAMGITDVFSSSANLSGISSAESLKISQAVHAAHAEINEAGREVVGSAEAGVDAASVSEEFRADHPFLFCIKHIATNAVLFFGRCVSP
Turning to B1, in data set [8] (setting [9]), the “titer of anti-ovalbumine antibodies IgG1” value is on record as 1/8000 and the “titer of anti-ovalbumine antibodies IgG2b” value is on record as 1/5250. Moreover, in data set [8], the “type of immune response (IgG subtypes)” value is “mixed Th1 and Th2 immune response”.
